Results: patent US5750362A, “Methods for identifying substances with a potential herbicidal or growth-regulating action by means of plant transporter proteins, the use of the transporter proteins, and substances with a herbicidal and growth-regulating action” (BASF Aktiengesellschaft, priority 1993, dated 1998)

Tests used:
sucrose transporters = conditions: Bush, 1989, Plant Physiol. 89: 1318-1323; result in words; cited from earlier work
[1] = target: T1, sucrose transporter P62 (StSUT1) (Solanum tuberosum, UniProt Q43653); assay: [14C]-sucrose uptake by yeast strain SUSY-7-P62 (StSUT1) expressing the potato sucrose transporter; assay type: cell-based; conditions: [14C]-sucrose uptake, pH 3.8, read-out: Activity relative to the control [%]
T1 construct: whole-cell [14C]-sucrose uptake; no tag or borders given
T1 sequence (Q43653 1-516): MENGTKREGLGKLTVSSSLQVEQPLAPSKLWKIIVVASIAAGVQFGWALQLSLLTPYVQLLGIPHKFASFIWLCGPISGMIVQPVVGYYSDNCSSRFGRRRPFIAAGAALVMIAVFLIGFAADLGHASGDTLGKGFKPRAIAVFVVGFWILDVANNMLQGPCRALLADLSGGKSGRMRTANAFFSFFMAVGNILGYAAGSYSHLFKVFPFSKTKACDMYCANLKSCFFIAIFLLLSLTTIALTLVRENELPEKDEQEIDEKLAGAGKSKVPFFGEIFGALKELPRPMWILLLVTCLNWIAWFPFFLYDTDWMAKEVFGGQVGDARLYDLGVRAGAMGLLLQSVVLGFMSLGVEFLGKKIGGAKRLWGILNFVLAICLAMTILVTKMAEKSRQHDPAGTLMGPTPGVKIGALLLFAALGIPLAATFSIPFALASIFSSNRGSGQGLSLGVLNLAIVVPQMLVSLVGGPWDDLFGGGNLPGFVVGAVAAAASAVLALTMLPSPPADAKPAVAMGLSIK
Excerpt: Yeast cells of the strain SUSY7 (Riesmeier et al., 1992, EMBO J. 11: 4705-4713) are used to identify substances which have an inhibitory effect on sucrose transporters from potato. Cells of this strain are transformed with a cDNA sequence which codes for the sucrose transporter P62 (StSUT1) from potato (WO 94/00574, Riesmeier et al., 1993, Plant Cell 5:1591-1598) and which ensures expression of a functional transporter in the cells. The resulting yeast strain was called SUSY-7-P62 (StSUT1). The yeast cells are cultured in minimal medium (SD +2% (w/v) sucrose, pH 3.8) at 28° C. and harvested in the logarithmic phase (OD600 =0.6). The cells are spun down at 4000 rpm for 10 minutes and washed twice with SD medium. A cell concentration of c=50 g/l in SD medium is adjusted according to the wet weight of the cells, and 200 Al aliquot fractions are taken. Before the actual reaction, the cells are incubated in 10 mM glucose for 5 min and adjusted to pH 3.8 with MES buffer. The reaction is started by adding 200 Al of a 0.2 mmol/l [14C]-sucrose solution (3 mCi/mmol) in SD medium (pH 3.8). After 20, 60, 120, 180 and 240 seconds, 70 μl portions of the suspension are removed and pipetted into 4 ml of ice-cold water in order to stop the reaction. The cells are filtered off on glass fiber filters and washed twice with ice-cold water. The radioactivity on the filters is subsequently determined in a liquid scintillation counter. The substances to be tested are added 30 seconds before addition of the sucrose. The uptake of radiolabeled sucrose without addition of a potential inhibitor is determined as one control. Cells of the strain SUSY7 which are not transformed with cDNA sequences coding for a sucrose transporter from potato are employed as further control.
The various tested substances, their concentration and the activity of the transporter, shown as percentage activity of the control in which no potential inhibitors were added, are indicated.

[2] = target: T2, ammonium transporter AMT1 (Arabidopsis thaliana, UniProt P54144); assay: cell-based; conditions: pH 7; [14C]-methylamine uptake; tested substance 10 μM; read-out: Activity relative to the control [%]
T2 construct: expressed in transfected cells; host or cells: Saccharomyces cerevisiae 26972c (mutations in MEP1 and MEP2)
T2 sequence (P54144 1-501): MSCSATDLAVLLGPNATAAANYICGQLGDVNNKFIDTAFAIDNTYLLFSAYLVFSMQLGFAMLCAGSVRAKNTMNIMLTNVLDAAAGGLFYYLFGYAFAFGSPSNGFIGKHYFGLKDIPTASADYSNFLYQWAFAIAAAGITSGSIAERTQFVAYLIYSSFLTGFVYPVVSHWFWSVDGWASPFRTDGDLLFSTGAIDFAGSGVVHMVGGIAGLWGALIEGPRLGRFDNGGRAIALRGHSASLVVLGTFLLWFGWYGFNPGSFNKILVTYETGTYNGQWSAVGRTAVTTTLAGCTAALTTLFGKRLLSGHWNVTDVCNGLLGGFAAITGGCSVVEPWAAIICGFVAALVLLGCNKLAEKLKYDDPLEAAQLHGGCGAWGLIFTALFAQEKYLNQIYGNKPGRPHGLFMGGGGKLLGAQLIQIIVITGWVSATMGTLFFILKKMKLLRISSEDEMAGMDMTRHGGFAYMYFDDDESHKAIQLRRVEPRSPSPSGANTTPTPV
Experimental: The measurements of transport identify inhibitors of plant ammonium transporters are carried out with the structural analog methylamine because radiolabeled ammonium is not commercially obtainable.
The yeast cells are transformed by standard methods with cDNA sequences which code for an ammonium transporter from plants and which permit expression of a functional transporter in the yeast cells. […] The cells are cultured in NAAG-medium (2% glucose, 1.7 g/l yeast nitrogen-base w/o amino acids and ammonium sulfate (Difco), supplemented with 500 μg/ml L-proline) at 28 degrees Celsius, and harvested in the logarithmic phase (OD660.=0.6). The cells are then spun down in a centrifuge at 4000 rpm and 4 degrees Celsius for 10 minutes, washed twice with 20 mM sodium phosphate buffer, pH 7, and taken up in the same buffer to an 0D660 of 8. 200 μl aliquot fractions of the cell suspension are taken. 5 minutes before the actual measurement,the yeasts are activated by addition of 100 mM glucose and incubated at 30 degrees Celsius. To start the reaction, 100 μl of the cell suspension are added to 100 µl of reaction mixture (20 mM Na phosphate buffer, pH7; 18.5 kBq of [^14 C]-methylamine (NEN); 100 M methylamine; substance to be tested depending on the experiment (see FIG. 4)). In each case 10, 60, 120 and 180 seconds after starting the reaction, 50 μl aliquots are taken, added to 4 ml of ice-cold 5 mM methylamine solution and filtered on glass fibre filters. After the filters have been washed with a further 8 ml of a methylamine solution, the radioactivity on the filters is subsequently determined in a liquid scintillation counter. Inhibitors are added 60 seconds before adding the glucose.
The uptake of radiolabeled methylamine without addition of a potential inhibitor is determined as one control.

| SMILES | Inhibition of sucrose transport (sucrose transporters) | remaining activity at 500 µM ([1]; tested substance 0.5 mM) | remaining activity at 10 µM [2] | remaining activity at 10 µM ([1]; tested substance 10 μM) |
| --- | --- | --- | --- | --- |
| CCOC(=O)OC(=O)OCC [DEPC, diethyl pyrocarbonate] | highly effective transport inhibitors | 6% | – | – |
| N#CC(C#N)=NNc1cccc(Cl)c1 [CCCP] | – | – | 40% | 9% |
